Reference: patent EP0296592A2, “Aminopropanol derivatives of 3-(2-hydroxyphenyl)-1-propanone, process for their preparation and medicines containing these compounds” (Helopharm W. Petrik GmbH & Co.KG., priority 1987, dated 1988)
Where a name gives a salt, the structure may show the parent alone. Read-outs that look alike come from different tables or passages of the source.

What was measured:
[1] = system: Purkinje-Fasern aus Hundeherzen; test: Electrophysiological studies on Purkinje fibres (Vmax); type: cell-based, Hund; conditions: for IC20: purkinje, read-out: C20 Vmax
Text: Die antiarrhythmische Wirksamkeit der erfindungsgemäßen Verbindungen wurde sowohl anhand von elektrophysiologischen Studien an Purkinje-Fasern aus Hundeherzen sowie mit Hilfe von Ouabain-induzierten ventrikulären Tachykardien bei Hunden bestimmt. […]
Als zusätzliches Kriterium wurde der Vorzeitigkeitsindex (Prematurity-Faktor) bestimmt, der die erwünschte Wirksamkeit der erfindungsgemäßen Verbindungen bei vorzeitigen Extrasystolen charakterisiert.

[2] = system: Meerschweinchen-Papillarmuskel; test: Contraction force of the heart on papillary muscle (negative inotropy); type: cell-based; conditions: for IC20: concentration that reduces contraction of the papillary muscle by 20 %, read-out: C20 CF
Text: Die Wirkung auf die Kontraktionskraft des Herzens wurde am Meerschweinchen-Papillarmuskel untersucht. Hämodynamische Studien wurden bei gesunden, wie auch akut infarzierten Hunden durchgeführt.

[3] = Acute toxicity LD50, rat i.v.; conditions: in vivo, iv, Ratte (i.v.), read-out: LD₅₀
Text: (§1) Dies ergibt sich aus einem Vergleich der LD₅₀-Werte bei Ratten und Mäusen, die in Tabelle (II) zusammengefaßt sind. Tabelle I

[4] = Acute toxicity LD50, mouse i.v.; conditions: in vivo, iv, Maus (i.v.), read-out: LD₅₀
Text: as §1

[5] = (% of control Vmax at cycle length 2000) / (% of control Vmax at cycle length 500) at C20 Vmax
[6] = (% of control Vmax at premature extrasystoles) / (% of control Vmax at a normal beat) at Vmax

Structure (SMILES) | C20 Vmax [1] | Prematurity Faktor Vmax [1] | Rate-Faktor von Vmax [1] | C20 CF [2] | LD50 [3] | Rate-Faktor von Vmax [1, 5] | Prematurity Faktor Vmax [1, 6] | IC20 [1] | IC20 [2] | LD50 [4]
CCCNCC(O)COc1ccccc1C(=O)CCc1ccccc1 (centres unmarked) [A, Propafenon, reference compound] | 3,7 µM | 0,97 | 1,08 | 5,3 µM |  |  |  |  |  | 
CCCNCC(O)COc1ccccc1CCC(=O)c1ccc(OC)c(OC)c1.Cl (centres unmarked) [Beispiel 1, 1-(3,4-Dimethoxyphenyl)-3-[2′-(2-hydroxy-3-n-propylaminopropoxy)-phenyl]-1-propanon-hydrochlorid] |  |  |  |  | 17 mg/kg | 5,00 | 0,50 | 12.5 µM | 15 µM | 16 mg/kg
CCC(C)(C)NCC(O)COc1ccccc1CCC(=O)c1ccc(OC)c(OC)c1.Cl (centres unmarked) [Beispiel 2, 1-(3,4-Dimethoxyphenyl)-3-[2′-(2-hydroxy-3-tert.-pentylamino-propoxy)-phenyl]-1-propanon-hydrochlorid] |  |  |  |  |  | 1,27 | 1,15 | 3.6 µM | 8 µM | 
COc1ccc(C(=O)CCc2ccccc2OCC(O)CNC(C)C)cc1OC.Cl (centres unmarked) [Beispiel 4, 1-(3,4-Dimethoxyphenyl)-3-[2′-(2-hydroxy-3-isopropylamino-propoxy)-phenyl]-1-propanon-hydrochlorid] |  |  |  |  |  | 1,13 | 1,01 | 4.8 µM | 22 µM | 
COc1ccc(C(=O)CCc2ccccc2OCC(O)CNC(C)(C)C)cc1OC.Cl (centres unmarked) [Beispiel 5, 1-(3,4-Dimethoxyphenyl)-3-[2′-(2-hydroxy-3-tert.-butylamino-propoxy)-phenyl]-1-propanon-hydrochlorid] |  |  |  |  |  | 1,39 | 0,98 | 4.4 µM | 12 µM | 
COc1ccc(C(=O)CCc2ccccc2OCC(O)CN2CCCCC2)cc1OC (centres unmarked) [Beispiel 6] | 11,3 µM | 0,70 | 1,32 | 20,0 µM |  |  |  |  |  | 
COc1ccc(C(=O)CCc2ccccc2OCC(O)CNCC(C)O)cc1OC (centres unmarked) [Beispiel 7, 1-(3,4-Dimethoxyphenyl)-3-[2′-(2-hydroxy-3(2˝-hydroxy-propylamino)-propoxy)-phenyl]-1-propanon-hydrochlorid] | 5,7 µM | 0,98 | 1,39 | 18,0 µM |  |  |  |  |  | 
COc1ccc(C(=O)CCc2ccccc2OCC(O)CNCCO)cc1OC (centres unmarked) [Beispiel 8, 1-(3,4-Dimethoxyphenyl)-3-[2′-(2-hydroxy-3(2˝-hydroxy-ethylamino)-propoxy)-phenyl]-1-propanon-hydrochlorid] | 8,3 µM | 0,97 | 1,34 | 13,0 µM |  |  |  |  |  | 
CCC(CO)NCC(O)COc1ccccc1CCC(=O)c1ccc(OC)c(OC)c1 (centres unmarked) [Beispiel 9, 1-(3,4-Dimethoxyphenyl)-3-[2′-(2-hydroxy-3-(1˝-hydroxy-but-2-ylamino)-propoxy)-phenyl]-1-propanon-oxalat] | 10,2 µM | 0,97 | 1,30 | 25,0 µM |  |  |  |  |  | 
COc1cc(C(=O)CCc2ccccc2OCC(O)CNC(C)C)cc(OC)c1OC.Cl (centres unmarked) [Beispiel 12, 1-(3,4,5-Trimethoxyphenyl)-3-[2′-(2-hydroxy-3-isopropylamino-propoxy)-phenyl]-1-propanon-hydrochlorid] |  |  |  |  |  | 1,14 | 0,90 | 5.8 µM | 18 µM | 
COc1cc(C(=O)CCc2ccccc2OCC(O)CNC2CCCCC2)cc(OC)c1OC.Cl (centres unmarked) [Beispiel 16, 1-(3,4,5-Trimethoxyphenyl)-3-[2′-(2-hydroxy-3-cyclohexylamino-propoxy)-phenyl]-1-propanon-hydrochlorid] |  |  |  |  |  | 5,00 | 0,50 | 11.9 µM | 9 µM | 
COc1cccc(C(=O)CCc2ccccc2OCC(O)CNC(C)C)c1.Cl (centres unmarked) [Beispiel 24, 1-(3-Methoxyphenyl)-3-[2′-(2-hydroxy-3-isopropylamino-propoxy)-phenyl]-1-propanon-hydrochlorid] |  |  |  |  |  | 1,15 | 1,01 | 1.6 µM | 10 µM | 
CCCNCC(O)COc1ccccc1CCC(=O)c1cccc(OC)c1.Cl (centres unmarked) [Beispiel 26, 1-(3-Methoxyphenyl)-3-[2′-(2-hydroxy-3-n-propylamino-propoxy)-phenyl]-1-propanon-hydrochlorid] |  |  |  |  |  | 1,16 | 0,93 | 1.7 µM | 3 µM | 
COc1cccc(C(=O)CCc2ccccc2OCC(O)CNC(C)(C)C)c1.Cl (centres unmarked) [Beispiel 27, 1-(3-Methoxyphenyl)-3-[2′-(2-hydroxy-3-tert.-butylamino-propoxy)-phenyl]-1-propanon-hydrochlorid] |  |  |  |  |  | 0,99 | 1,24 | 1.6 µM | 4 µM | 
COc1ccccc1C(=O)CCc1ccccc1OCC(O)CNC(C)(C)C.Cl (centres unmarked) [Beispiel 38, 1-(2-Methoxyphenyl)-3-[2′-(2-hydroxy-3-tert.-butylamino-propoxy)-phenyl]-1-propanon-hydrochlorid] |  |  |  |  | 15 mg/kg | 1,30 | 0,97 | 1.7 µM | 7 µM | 17 mg/kg
Cc1ccc(C(=O)CCc2ccccc2OCC(O)CNC(C)(C)C)cc1.Cl (centres unmarked) [Beispiel 44, 1-(4-Methylphenyl)-3-[2′-(2-hydroxy-3-tert.-butylamino-propoxy)-phenyl]-1-propanon-hydrochlorid] |  |  |  |  |  | 1,11 | 0,99 | 2.6 µM | 6 µM | 
Cl.O=C(CCc1ccccc1OCC(O)CNC1CCCCC1)c1ccccc1 (centres unmarked) [Beispiel 46, 1-Phenyl,-3-[2′-(2-hydroxy-3-cyclohexylamino-propoxy)-phenyl]-1-propanon-hydrochlorid] |  |  |  |  |  | 2,50 | 0,92 | 2.2 µM | 2 µM | 
Cl.O=C(CCc1ccccc1OCC(O)CN1CCCCC1)c1ccccc1 (centres unmarked) [Beispiel 47, 1-Phenyl-3-[2′-(2-hydroxy-3-piperidino-propoxy)-phenyl]-1-propanon-hydrochlorid] |  |  |  |  |  | 1,08 | 0,99 | 0.3 µM | 2 µM | 
CC(C)(C)NCC(O)COc1ccccc1CCC(=O)c1ccccc1.Cl (centres unmarked) [Beispiel 48, 1-Phenyl-3-[2′-(2-hydroxy-3-tert.-butylamino-propoxy)-phenyl]-1-propanon-hydrochlorid] |  |  |  |  |  | 1,18 | 0,91 | 1 µM | 3 µM | 
